Counter-ions that a name gives are not always drawn.
Tested on: not given
Conditions: not given

| melting point | SMILES |
| --- | --- |
| 252 °C | CC(C)(C)N1CCN(c2ccc(N3CCN(C(=O)N[C@H]4C5CC6CC4C[C@@](CNS(C)(=O)=O)(C6)C5)c4ccccc43)nc2)CC1 (as salt: hydrochloride) |
| 160 to 170 °C | CC(C)(C)N1CCN(c2ccc(N3CCN(C(=O)N[C@H]4C5CC6CC4C[C@@](Cc4nn[nH]n4)(C6)C5)c4ccccc43)nc2)CC1 |
| 125 to 163 °C | CONC(=O)[C@]12CC3CC(C1)[C@H](NC(=O)N1CCN(c4ccc(N5CCN(S(=O)(=O)C6CC6)CC5)cn4)c4ccccc41)C(C3)C2 |
| 120 to 135 °C | NC(=O)C[C@]12CC3CC(C1)[C@H](NC(=O)N1CCN(c4ccc(N5CCN(S(=O)(=O)C6CC6)CC5)cn4)c4ccccc41)C(C3)C2 |
| 165 °C | CC(C)(C)N1CCN(c2ccc(N3CCN(C(=O)N[C@H]4C5CC6CC4C[C@@](NS(C)(=O)=O)(C6)C5)c4ccccc43)nc2)CC1 |
| 192 to 196 °C | CC(C)(C)N1CCN(c2ccc(N3CCN(C(=O)N[C@H]4C5CC6CC4C[C@@](C(O)C(F)(F)F)(C6)C5)c4ccccc43)nc2)CC1 (stereo partly drawn) |
| 135 °C | Cc1noc([C@]23CC4CC(C2)[C@H](NC(=O)N2CCN(c5ccc(N6CCN(S(=O)(=O)C7CC7)CC6)cn5)c5ccccc52)C(C4)C3)n1 |
| 197 °C | NC[C@]12CC3CC(C1)[C@H](NC(=O)N1CCN(c4ccc(N5CCN(S(=O)(=O)C6CC6)CC5)cn4)c4ccccc41)C(C3)C2 (as salt: hydrochloride) |

Tested on: 11βHSD1 in the eyes
Conditions: healthy volunteers, after seven days of treatment; cited from earlier work

| SMILES | IOP is reduced by |
| --- | --- |
| CC1(C)[C@@H](OC(=O)CCC(=O)O)CC[C@]2(C)[C@H]3C(=O)C=C4[C@@H]5C[C@@](C)(C(=O)O)CC[C@]5(C)CC[C@@]4(C)[C@]3(C)CC[C@@H]12 [carbenoxolone] | 18% |

Reference: patent publication US8536173B2, “Tetrahydroquinoxaline urea derivatives as modulators of 11-B-hydroxysteroid dehydrogenase type I” (SANOFI, priority 2009, dated 2013)
